Series [1] can be described thus: Solubility in water at 25° C. Particulars: for solubility: water; for solubility in water: unit given as mg. Type of series: physicochemical.
The nature of series [2]: Contact angles by tilting plane method (sessile drop on tilted surface). Type of series: physicochemical. Particulars: sessile drop of water or buffered aqueous medium (50 mM sodium phosphate, pH 6.8) on tilted surface of the substance. From the text:
The tilting plane method of measuring contact angles involves slowly tilting a surface or plane of a substance the contact angle of which is to be determined until a sessile drop on the plane begins to move in the downhill direction. At that time the angle between the plane and the downhill tangent of the drop at the plane is the advancing contact angle, and the angle between the plane and the uphill tangent of the drop at the plane is the receding contact angle. A procedure for determining the contact angles of a therapeutic component is as follows. A small batch of Compound III weighing approximately 30 g is micronized in a ball mill for three days using 5-mm stainless steel balls. The resulting particles have an average diameter of 8 μm. A 200-mg sample of the micronized Compound III is compressed into a wafer 12 mm in diameter and 2 mm thick using a Carver press. The wafer is then glued on to a plastic board. Separately, a 10 milliliter aqueous solution is prepared containing 50 mM sodium phosphate buffer at pH 6.8. A drop of a blue food dye is added to the solution to aid visualization. A 40 μL drop of the blue aqueous solution is placed on top of the Compound III wafer on a plastic board resting at a horizontal position. The plastic board and the wafer are then slowly tilted from their horizontal position in front of a continuous shooting camera. The process stops after the blue aqueous drop has run down the wafer. The images that show the shapes of the liquid drop just prior to it starting to run down the wafer are analyzed and the contact angles measured. Alternatively, both the advancing and receding contact angles can be measured using a KSV instrument (model CAM 200) with a tilt stage. The instrument is fully computer controlled, and it captures the video image and performs full analysis of the advancing and receding contact angles.

For series [3] the following is noted: at doses 10-fold greater than the dose required to produce a 50% reduction in one or more symptoms; cited from earlier work.
The nature of series [4]: Dissolution in aqueous solution buffered to pH 6.8 over time (FIG. 1, FIG. 2). Type of series: physicochemical. To be noted: 100 mg sample with excipients in buffer pH 6.8, FIG. 1 curves. How it is done: Samples A and B are in the form of particles having an average diameter of about 150 microns. Samples C and D are in the form of particles having an average diameter of about 10 microns.
An aqueous solution buffered with a buffer to a pH of 6.8 is provided. A quantity of a mixture containing conventional pharmaceutically acceptable excipients is provided. In addition, a quantity of sodium dodecyl sulfate is provided.
A mixture of Sample A (100 mg) and excipients is formed and is placed in 900 ml of the aqueous solution.
A mixture of Sample C (100 mg) and excipients is formed and is placed in another 900 ml of the aqueous solution. Test samples of each of the aqueous solutions are taken at various times after each of the mixtures containing Compound III (Samples A and C) is placed in the aqueous solution. Each of these test samples is analyzed for Compound III concentration. Using these test results over a period of 240 minutes, relationships between the percentage of Sample A and Sample C dissolved and time are developed. These tests are run a total of 3 times (n=3).
Each of Samples B and D is tested in a substantially similar way. However, when testing Samples B and […], 1% based on weight of the mixture of Sample and excipient mixture, of sodium dodecyl sulfate is included in the mixture. Each of these tests is run a total of 3 times. […]

Each structure is given as a SMILES string.

Consider five compounds from patent publication US20090252802A1, “Compositions Including Relatively Water Insoluble/Unwettable Drugs And Methods For Using Same” (priority 2006, published 2009).

In the case of `O=C1c2ccccc2CCC1Cc1c[nH]c(=S)[nH]1` (centres unmarked) [Compound I], in series [1], the solubility is less than 500 µg/mL. Further, in series [2], the advancing contact angle result is listed as “greater than 90 °” and the receding contact angle entry is on record as “greater than 45 °”.
For `O=c1[nH]cc(CC2Cc3ccc(F)cc3C2)[nH]1` (centres unmarked) [Compound II], in series [1], the solubility in water result is “less than 0.5 mg”. Further, in series [2], the advancing contact angle result is listed as “greater than 90 °” and the receding contact angle result is reported as “greater than 45 °”.
Turning to `Cc1cccc([C@H](C)c2c[nH]cn2)c1C` [dexmeditomidine], in series [3], the sedation entry was “completely sedating”.
For `Cc1cccc([C@@H](C)c2c[nH]c(=S)[nH]2)c1C` [Compound IV], the solubility in water result in series [1] is reported as “less than 0.5 mg”. Besides, in series [2], the advancing contact angle entry was “greater than 90 °” and the receding contact angle entry was “greater than 45 °”.
For the compound `S=c1[nH]cc(CC2CC=CC2)[nH]1` [Compound III], in series [4], the “rate of dissolution (comparison in words)” value is “relatively reduced rate of dissolution in water”. The compound further returned a solubility in series [1] of less than 500 µg/mL. In series [2], the advancing contact angle worked out at 116 ° and the receding contact angle was 73 °.
